Data: patent US8318749B2, “Quinazoline derivatives as NK3 receptor antagonists” (Hoffmann-La Roche Inc., priority 2008, dated 2012)

These compounds were tested against T1, recombinant human NK3 receptor (Homo sapiens, UniProt P29371) (assay: [3H]SR142801 competition binding assay). Settings: membrane from HEK293 cells transiently expressing recombinant human NK3 receptor; radioligand [3H]SR142801; 75 min at RT.
T1 construct: expressed in transfected cells; host or cells: HEK293 cells (transient expression), membrane preparation
T1 sequence (P29371 1-465): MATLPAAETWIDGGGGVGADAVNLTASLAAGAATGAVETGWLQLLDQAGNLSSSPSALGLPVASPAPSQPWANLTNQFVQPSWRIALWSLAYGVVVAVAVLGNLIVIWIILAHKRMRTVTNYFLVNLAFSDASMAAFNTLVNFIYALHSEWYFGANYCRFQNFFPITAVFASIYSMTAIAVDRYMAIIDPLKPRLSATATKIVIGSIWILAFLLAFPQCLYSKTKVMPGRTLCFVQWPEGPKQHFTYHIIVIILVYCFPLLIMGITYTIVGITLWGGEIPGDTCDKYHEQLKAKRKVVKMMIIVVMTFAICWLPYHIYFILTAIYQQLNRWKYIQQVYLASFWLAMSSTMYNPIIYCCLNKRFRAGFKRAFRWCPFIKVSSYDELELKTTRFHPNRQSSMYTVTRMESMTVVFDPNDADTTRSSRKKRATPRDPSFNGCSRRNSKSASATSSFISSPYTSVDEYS
Procedure: [^3H]SR142801 Competition Binding Assay
hNK3 receptor binding experiment were performed using [^3H]SR142801 (Catalog No. TRK1035, specific activity: 74.0 Ci/mmol, Amersham, GE Healthcare UK limited, Buckinghamshire, UK) and membrane isolated from HEK293 cells transiently expressing recombinant human NK3 receptor. After thawing, the membrane homogenates were centrifuged at 48,000×g for 10 min at 4° C., the pellets were resuspended in the 50 mM Tris-HCl, 4 mM MnCl2, 1 μM phosphoramidon, 0.1% BSA binding buffer at pH 7.4 to a final assay concentration of 5 μg protein/well. […] At the end of the incubation, membranes were filtered onto unitfilter (96-well white microplate with bonded GF/C filter preincubated 1 h in 0.3% PEI+0.3% BSA, Packard BioScience, Meriden, Conn.) with a Filtermate 196 harvester (Packard BioScience) and washed 4 times with ice-cold 50 mM Tris-HCl, pH 7.4 buffer. Nonspecific binding was measured in the presence of 10 μM SB222200 for both radioligands. The radioactivity on the filter was counted (5 min) on a Packard Top-count microplate scintillation counter with quenching correction after addition of 45 μl of microscint 40 (Canberra Packard S.A., Zürich, Switzerland) and shaking for 1 h. Inhibition curves were fitted according to the Hill equation: y=100/(1+(x/IC50)^nH), where nH=slope factor using Excel-fit 4 software (Microsoft). IC50 values were derived from the inhibition curve and the affinity constant (Ki) values were calculated using the Cheng-Prussoff equation Ki=IC50/(1+[L]/KD) where [L] is the concentration of radioligand and KD is its dissociation constant at the receptor, derived from the saturation isotherm. All experiments were performed in duplicate and the mean±standard error (SEM) of the individual Ki values was calculated.

| SMILES | Ki [nM] |
| --- | --- |
| COc1cc2nc(N3CCC(Cc4ccccc4)(C(=O)NCc4cccnc4)CC3)nc(N)c2cc1OC [Example 1, 1-(4-Amino-6,7-dimethoxy-quinazolin-2-yl)-4-benzyl-piperidine-4-carboxylic acid (pyridin-3-ylmethyl)-amide] | 90.9 |
| COc1cc2nc(N3CCC(Cc4ccccc4)(C(=O)NCc4cccnc4)CC3)nc(O)c2cc1OC [Example 2, 4-Benzyl-1-(4-hydroxy-6,7-dimethoxy-quinazolin-2-yl)-piperidine-4-carboxylic acid (pyridin-3-ylmethyl)-amide] | 66.1 |
| COc1cc2nc(N3CCC(Cc4ccc(F)cc4)(C(=O)NCc4ccccc4)CC3)nc(N)c2cc1OC [Example 4, 1-(4-Amino-6,7-dimethoxy-quinazolin-2-yl)-4-(4-fluoro-benzyl)-piperidine-4-carboxylic acid benzylamide] | 37.3 |
| COc1cc2nc(N3CCC(Cc4ccccc4)(C(=O)NCc4ccccc4)CC3)nc(N)c2cc1OC [Example 10, l-(4-Amino-6,7-dimethoxy-quinazolin-2-yl)-4-benzyl-piperidine-4-carboxylic acid benzylamide] | 18.3 |
| COc1cc2nc(N3CCC(Cc4ccccc4)(C(=O)NCc4ccccc4)CC3)nc(N(C)C)c2cc1OC [Example 14, 4-Benzyl-1-(4-dimethylamino-6,7-dimethoxy-quinazolin-2-yl)-piperidine-4-carboxylic acid benzylamide] | 73.2 |
| COc1cc2nc(N3CCC(Cc4ccccc4)(C(=O)NCc4ccccc4)CC3)nc(NC3CC3)c2cc1OC [Example 15, 4-Benzyl-1-(4-cyclopropylamino-6,7-dimethoxy-quinazolin-2-yl)-piperidine-4-carboxylic acid benzylamide] | 69.3 |
| O=C(NCc1ccccc1)C1(Cc2ccccc2)CCN(c2nc(O)c3cc(F)c(Cl)cc3n2)CC1 [Example 16, 4-Benzyl-1-(7-chloro-6-fluoro-4-hydroxy-quinazolin-2-yl)-piperidine-4-carboxylic acid benzylamide] | 34.7 |
| COc1cc2nc(N3CCC(Cc4ccccc4)(C(=O)NCc4ccccc4)CC3)nc(O)c2cc1OC [Example 17, 4-Benzyl-1-(4-hydroxy-6,7-dimethoxy-quinazolin-2-yl)-piperdine-4-carboxylic acid benzylamide] | 3.6 |
| COc1cc2nc(N3CCC(Cc4ccccc4)(C(=O)NC4Cc5ccccc5C4)CC3)nc(N)c2cc1OC [Example 19, 1-(4-Amino-6,7-dimethoxy-quinazolin-2-yl)-4-benzyl-piperidine-4-carboxylic acid indan-2-ylamie] | 27.8 |
| COc1cc2nc(N3CCC(Cc4ccccc4)(C(=O)NCc4ccc(OC(F)F)cc4)CC3)nc(N)c2cc1OC [Example 20, 1-(4-Amino-6,7-dimethoxy-quinazolin-2-yl)-4-benzyl-piperidine-4-carboxylic acid 4-difluoromethoxy-benzylamide] | 46.3 |
| COc1cc2nc(N3CCC(Cc4ccccc4)(C(=O)NC4CCCc5ccccc54)CC3)nc(N)c2cc1OC (stereo not drawn) [Example 23, 1-(4-Amino-6,7-dimethoxy-quinazolin-2-yl)-4-benzyl-piperidine-4-carboxylic acid (1,2,3,4-tetrahydro-naphthalen-1-yl)-amide] | 46.6 |
| COc1cc2nc(N3CCC(Cc4ccccc4)(C(=O)NC(C)c4ccc(Cl)cc4)CC3)nc(N)c2cc1OC (stereo not drawn) [Example 25, 1-(4-Amino-6,7-dimethoxy-quinazolin-2-yl)-4-benzyl-piperidine-4-carboxylic acid [1-(4-chloro-phenyl)-ethyl]-amide] | 95.1 |

Other lines, results leading:

| Ki [nM] | SMILES |
| --- | --- |
| 52.4 | COc1cc2nc(N3CCC(Cc4ccccc4)(C(=O)NCc4ccc(Cl)c(Cl)c4)CC3)nc(N)c2cc1OC [Example 28, 1-(4-Amino-6,7-dimethoxy-quinazolin-2-yl)-4-benzyl-piperidine-4-carboxylic acid 3,4-dichloro-benzylamide] |
| 17.2 | COc1cc2nc(N3CCC(Cc4ccccc4)(C(=O)NCc4ccc(N(C)C)cc4)CC3)nc(N)c2cc1OC [Example 33, 1-(4-Amino-6,7-dimethoxy-quinazolin-2-yl)-4-benzyl-piperidine-4-carboxylic acid 4-dimethylamino-benzylamide] |
| 7.5 | COc1cc2nc(N3CCC(Cc4ccccc4)(C(=O)NC4Cc5ccccc5C4O)CC3)nc(N)c2cc1OC (stereo not drawn) [Example 38, 1-(4-Amino-6,7-dimethoxy-quinazolin-2-yl)-4-benzyl-piperidine-4-carboxylic acid (1-hydroxy-indan-2-yl)-amide] |
| 3.6 | COc1cc2nc(N3CCC(Cc4ccccc4)(C(=O)N[C@H]4c5ccccc5C[C@@H]4O)CC3)nc(N)c2cc1OC [Example 39, 1-(4-Amino-6,7-dimethoxy-quinazolin-2-yl)-4-benzyl-piperidine-4-carboxylic acid ((1S,2S)-2-hydroxy-indan-1-yl)-amide] |
| 10.1 | COc1cc2nc(N3CCC(Cc4ccccc4)(C(=O)NC4CCc5ccccc5C4)CC3)nc(N)c2cc1OC (stereo not drawn) [Example 40, 1-(4-Amino-6,7-dimethoxy-quinazolin-2-yl)-4-benzyl-piperidine-4-carboxylic acid (1,2,3,4-tetrahydro-naphthalen-2-yl)-amide] |
| 48.7 | COc1cc2nc(N3CCC(Cc4ccccc4)(C(=O)NC(CO)c4ccccc4)CC3)nc(N)c2cc1OC (stereo not drawn) [Example 41, 1-(4-Amino-6,7-dimethoxy-quinazolin-2-yl)-4-benzyl-piperidine-4-carboxylic acid (2-hydroxy-1-phenyl-ethyl)-amide] |
| 5.4 | COc1cc2nc(N3CCC(Cc4ccccc4)(C(=O)NC4CCc5ccccc54)CC3)nc(N)c2cc1OC (stereo not drawn) [Example 44, 1-(4-Amino-6,7-dimethoxy-quinazolin-2-yl)-4-benzyl-piperidine-4-carboxylic acid indan-1-ylamide] |
| 43.8 | COc1cc2nc(N3CCC(Cc4ccccc4)(C(=O)NCc4ccco4)CC3)nc(N)c2cc1OC [Example 46, 1-(4-Amino-6,7-dimethoxy-quinazolin-2-yl)-4-benzyl-piperidine-4-carboxylic acid (furan-2-ylmethyl)-amide] |
| 46.7 | COc1cc2nc(N3CCC(Cc4ccccc4)(C(=O)N4CCCC4c4ccccc4)CC3)nc(N)c2cc1OC (stereo not drawn) [Example 47, [1-(4-Amino-6,7-dimethoxy-quinazolin-2-yl)-4-benzyl-piperidin-4-yl]-(2-phenyl-pyrrolidin-1-yl)-methanone] |
| 20.6 | COc1cc2nc(N3CCC(Cc4ccccc4)(C(=O)N[C@H](C)c4ccccc4)CC3)nc(N)c2cc1OC [Example 49, 1-(4-Amino-6,7-dimethoxy-quinazolin-2-yl)-4-benzyl-piperidine-4-carboxylic acid ((R)-1-phenyl-ethyl)-amide] |
| 16.6 | CC[C@@H](NC(=O)C1(Cc2ccccc2)CCN(c2nc(N)c3cc(OC)c(OC)cc3n2)CC1)c1ccccc1 [Example 51, 1-(4-Amino-6,7-dimethoxy-quinazolin-2-yl)-4-benyzl-piperidine-4-carboxylic acid ((R)-1-phenyl-propyl)-amide] |
| 25.4 | COc1cc2nc(N3CCC(Cc4ccccc4)(C(=O)NC4CCCC4)CC3)nc(O)c2cc1OC [Example 53, 4-Benzyl-1-(4-hydroxy-6,7-dimethoxy-quinazolin-2-yl)-piperidine-4-carboxylic acid cyclopentylamide] |
| 4.8 | COc1cc2nc(N3CCC(Cc4ccccc4)(C(=O)N(C)Cc4ccccc4)CC3)nc(O)c2cc1OC [Example 54, 4-Benzyl-1-(4-hydroxy-6,7-dimethoxy-quinazolin-2-yl)-piperidine-4-carboxylic acid benzyl-methyl-amide] |
| 11.1 | COc1cc2nc(N3CCC(Cc4ccccc4)(C(=O)NC4Cc5ccccc5C4)CC3)nc(O)c2cc1OC [Example 55, 4-Benzyl-1-(4-hydroxy-6,7-dimethoxy-quinazolin-2-yl)-piperidine-4-carboxylic acid indan-2-ylamide] |
| 62.8 | COc1cc2nc(N3CCC(Cc4ccccc4)(C(=O)N(C)C4Cc5ccccc5C4)CC3)nc(O)c2cc1OC [Example 57, 4-Benzyl-1-(4-hydroxy-6,7-dimethoxy-quinazolin-2-yl)-piperidine-4-carboxylic acid indan-2-yl-methyl-amide] |
